Like-named read-outs stand apart in the source and are kept apart here.
How the values were obtained:
Pyricularia grisea = format: in vivo
rice blast fungi [1] = format: in vivo, Pyricularia grisea
[2] = test system: Salmonella typhimurium TA100 and TA98
Oryzias latipes = conditions: in vivo
Sprague-Dawley rats = conditions: rat, in vivo
rice blast fungi [3] = format: cell-based, Magnaporthe grisea
rice blast fungi [4] = format: cell-based, Magnaporthe grisea; conditions: 5 μg/ml

SMILES	controlling effect on rice blast (Pyricularia grisea; 2 ppm) [%]	controlling effect on rice blast (Pyricularia grisea; 10 ppm) [%]	controlling effect on rice blast (Pyricularia grisea; 100 ppm) [%]	Inhibiting Ratio (%) (at 250 ppm) (rice blast fungi [1])	bacterial reverse mutation [2]	colony number in the group treated with the test material [2]	Accumulated number of dead animals (Oryzias latipes)	acute toxicity value (Oryzias latipes) [mg/L]	body weight (Sprague-Dawley rats)	dead animals (Sprague-Dawley rats)	general symptoms (Sprague-Dawley rats)	postmortem examination (Sprague-Dawley rats)	minimal lethal dose (Sprague-Dawley rats; po)	concentration at which the accumulation of melanin in the appressorium is inhibited (rice blast fungi [3])	color of the medium (rice blast fungi [4])
COc1ccc(NC(=O)Cc2csc(=Nc3ccccc3F)n2C)cc1.Cl [Compound 204, 2-(2-fluorophenylimino)-3-methyl-4-[N-(4-methoxyphenyl)carbamoylmethyl]-1,3-thiazol-4-ine hydrochloride]	83	95	97	97	does not cause bacterial reverse mutation	less than twice of that in the negative control group	0	> 100	Normal weight gain	not observed	Any abnormal observations were made	does not show any abnormal conservation	higher than 2500 mg/kg	–	–
Br.Cn1c(CC(=O)Nc2ccccc2)csc1=Nc1cc(Cl)cc(Cl)c1 [Compound 5, 2-(3,5-dichlorophenylimino)-3-methyl-4-(N-phenylcarbamoylmethyl)-1,3-thiazol-4-ine hydrobromide]	–	–	–	100	–	–	–	–	–	–	–	–	–	above 10 μg/ml	white

Source: patent US6921770B2 (priority 2000, dated 2005)
